According to the NIST ThermoML archive (doi:10.1016/j.jct.2005.02.004):
± gives the expanded uncertainty stated by the source.

Test: mn = molality of the nth substance listed, in mol/kg
Settings: Liquid, Vibrating tube method

[Br-].[Br-].[Zn+2] [zinc bromide] + CO
Settings | mass density [kg/m3]
348.24 K, 320 kPa, m1 = 0.05772 | 749.2 ± 0.46
348.24 K, 338 kPa, m1 = 1.951 | 1012.66 ± 0.43
348.24 K, 4981 kPa, m1 = 0.05772 | 755.32 ± 0.47
348.24 K, 4997 kPa, m1 = 1.951 | 1018.61 ± 0.43
348.24 K, 9997 kPa, m1 = 0.05772 | 761.44 ± 0.48
348.24 K, 10010 kPa, m1 = 1.951 | 1024.67 ± 0.43
348.24 K, 14982 kPa, m1 = 0.05772 | 767.11 ± 0.5
348.24 K, 14997 kPa, m1 = 1.951 | 1030.41 ± 0.43
348.24 K, 19995 kPa, m1 = 1.951 | 1035.89 ± 0.43
348.24 K, 20002 kPa, m1 = 0.05772 | 772.47 ± 0.52
348.24 K, 25006 kPa, m1 = 1.951 | 1041.15 ± 0.44
348.24 K, 25019 kPa, m1 = 0.05772 | 777.52 ± 0.53
348.24 K, 29980 kPa, m1 = 1.951 | 1046.17 ± 0.44
348.24 K, 29988 kPa, m1 = 0.05772 | 782.26 ± 0.55
348.24 K, 34988 kPa, m1 = 0.05772 | 786.8 ± 0.57
348.24 K, 34988 kPa, m1 = 1.951 | 1051.04 ± 0.44
348.24 K, 39992 kPa, m1 = 1.951 | 1055.74 ± 0.45
348.24 K, 39996 kPa, m1 = 0.05772 | 791.14 ± 0.59
373.24 K, 509 kPa, m1 = 0.3785 | 775.13 ± 0.45
373.24 K, 510 kPa, m1 = 0.7158 | 822.07 ± 0.44
373.24 K, 4989 kPa, m1 = 0.3785 | 782.12 ± 0.46
373.24 K, 5012 kPa, m1 = 0.7158 | 828.98 ± 0.45
373.24 K, 9999 kPa, m1 = 0.7158 | 836.05 ± 0.45
373.24 K, 10005 kPa, m1 = 0.3785 | 789.3 ± 0.47
373.24 K, 14990 kPa, m1 = 0.7158 | 842.63 ± 0.46
373.24 K, 14993 kPa, m1 = 0.3785 | 795.89 ± 0.48
373.24 K, 19988 kPa, m1 = 0.7158 | 848.79 ± 0.47
373.24 K, 20013 kPa, m1 = 0.3785 | 802.08 ± 0.5
373.24 K, 24986 kPa, m1 = 0.3785 | 807.84 ± 0.51
373.24 K, 25005 kPa, m1 = 0.7158 | 854.61 ± 0.48
373.24 K, 29988 kPa, m1 = 0.3785 | 813.28 ± 0.52
373.24 K, 29996 kPa, m1 = 0.7158 | 860.06 ± 0.48
373.24 K, 35005 kPa, m1 = 0.3785 | 818.47 ± 0.54
373.24 K, 35010 kPa, m1 = 0.7158 | 865.28 ± 0.49
373.24 K, 39999 kPa, m1 = 0.3785 | 823.36 ± 0.55
373.24 K, 40008 kPa, m1 = 0.7158 | 870.23 ± 0.5
373.25 K, 530 kPa, m1 = 0.05772 | 722.55 ± 0.46
373.25 K, 5013 kPa, m1 = 0.05772 | 729.6 ± 0.47
373.25 K, 10010 kPa, m1 = 0.05772 | 736.76 ± 0.49
373.25 K, 14996 kPa, m1 = 0.05772 | 743.34 ± 0.51
373.25 K, 20007 kPa, m1 = 0.05772 | 749.46 ± 0.53
373.25 K, 25002 kPa, m1 = 0.05772 | 755.2 ± 0.55
373.25 K, 29988 kPa, m1 = 0.05772 | 760.57 ± 0.57
373.25 K, 35011 kPa, m1 = 0.05772 | 765.68 ± 0.59
373.25 K, 40009 kPa, m1 = 0.05772 | 770.5 ± 0.62
373.26 K, 510 kPa, m1 = 1.951 | 982.6 ± 0.43
373.26 K, 4981 kPa, m1 = 1.951 | 989.17 ± 0.43
373.26 K, 9999 kPa, m1 = 1.951 | 996.08 ± 0.43
373.26 K, 14998 kPa, m1 = 1.951 | 1002.57 ± 0.43
373.26 K, 19990 kPa, m1 = 1.951 | 1008.69 ± 0.43
373.26 K, 25011 kPa, m1 = 1.951 | 1014.53 ± 0.43
373.26 K, 29987 kPa, m1 = 1.951 | 1020.09 ± 0.43
373.26 K, 34996 kPa, m1 = 1.951 | 1025.43 ± 0.43
373.26 K, 39999 kPa, m1 = 1.951 | 1030.56 ± 0.44
398.25 K, 874 kPa, m1 = 0.7158 | 791.54 ± 0.44
398.25 K, 875 kPa, m1 = 0.3785 | 744.91 ± 0.46
398.25 K, 4997 kPa, m1 = 0.7158 | 799.23 ± 0.45
398.25 K, 5007 kPa, m1 = 0.3785 | 752.83 ± 0.46
398.25 K, 9995 kPa, m1 = 0.7158 | 807.74 ± 0.46
398.25 K, 9997 kPa, m1 = 0.3785 | 761.43 ± 0.48
398.25 K, 14982 kPa, m1 = 0.7158 | 815.46 ± 0.47
398.25 K, 15016 kPa, m1 = 0.3785 | 769.33 ± 0.49
398.25 K, 19995 kPa, m1 = 0.7158 | 822.66 ± 0.48
398.25 K, 19996 kPa, m1 = 0.3785 | 776.5 ± 0.51
398.25 K, 25004 kPa, m1 = 0.7158 | 829.32 ± 0.49
398.25 K, 25013 kPa, m1 = 0.3785 | 783.19 ± 0.53
398.25 K, 29995 kPa, m1 = 0.3785 | 789.37 ± 0.54
398.25 K, 29999 kPa, m1 = 0.7158 | 835.55 ± 0.5
398.25 K, 34983 kPa, m1 = 0.7158 | 841.37 ± 0.51
398.25 K, 34995 kPa, m1 = 0.3785 | 795.22 ± 0.56
398.25 K, 39988 kPa, m1 = 0.7158 | 846.94 ± 0.52
398.25 K, 40001 kPa, m1 = 0.3785 | 800.74 ± 0.58
398.27 K, 890 kPa, m1 = 1.951 | 951.2 ± 0.43
398.27 K, 899 kPa, m1 = 0.05772 | 692.91 ± 0.46
398.27 K, 4987 kPa, m1 = 1.951 | 958.29 ± 0.43
398.27 K, 5013 kPa, m1 = 0.05772 | 700.92 ± 0.48
398.27 K, 9996 kPa, m1 = 1.951 | 966.33 ± 0.43
398.27 K, 10001 kPa, m1 = 0.05772 | 709.63 ± 0.5
398.27 K, 14992 kPa, m1 = 0.05772 | 717.48 ± 0.52
398.27 K, 14992 kPa, m1 = 1.951 | 973.78 ± 0.43
398.27 K, 19995 kPa, m1 = 0.05772 | 724.66 ± 0.54
398.27 K, 20001 kPa, m1 = 1.951 | 980.78 ± 0.43
398.27 K, 24985 kPa, m1 = 0.05772 | 731.27 ± 0.57
398.27 K, 25015 kPa, m1 = 1.951 | 987.36 ± 0.43
398.27 K, 29996 kPa, m1 = 1.951 | 993.57 ± 0.43
398.27 K, 30002 kPa, m1 = 0.05772 | 737.46 ± 0.59
398.27 K, 34980 kPa, m1 = 1.951 | 999.48 ± 0.43
398.27 K, 34994 kPa, m1 = 0.05772 | 743.23 ± 0.62
398.27 K, 39999 kPa, m1 = 0.05772 | 748.68 ± 0.64
398.27 K, 40007 kPa, m1 = 1.951 | 1005.18 ± 0.43
